Assays:
OCI-AML-2 = assay: Cell viability assay (MTS); assay type: cell-based; conditions: Homo sapiens, OCI-AML2, 72 hours, mean ± standard deviation
Description: (§1) Human multiple myeloma cell lines 8226, H929, JJN3, KMH11, KMS11, KMS18, LP1, MM1S, OPM2 and U266 were grown in Iscove modified Dulbecco's medium (IMDM). Human leukemia cell lines K562, OCI-AML2 and U937 were cultured in RPMI-1640 medium. Primary peripheral blood mononuclear cells were isolated from multiple myeloma patients by Ficoll density gradient centrifugation and bone marrow aspirates were obtained from multiple myeloma patients at the Princess Margaret Cancer Centre of the University Health Network (UHN; Toronto, ON, Canada). Primary cells were cultured in IMDM. The collection and use of human tissue for this study were approved by the UHN institutional ethics review board. All cell culture media were obtained from the Ontario Cancer Institute Tissue Culture Media Facility (Toronto, ON, Canada) and were supplemented with 10% fetal calf serum, […] (Hyclone, Logan, Utah). All cells were grown in a humidified incubator at 37° C. with 5% CO2.
(§2) Cellular viability was primarily assessed by 3-(4,5-dimethylthiazol-2-yl)-5-(3-carboxymethoxyphenyl)-2-(4-sulfophenyl)-2H-tetrazolium (MTS) assay according to the manufacturer's instructions (Promega; Madison, Wis.). Cells were first seeded at a density of 10,000 cells per well in tissue culture-treated 96-well plates. Two hours after seeding, cells were treated with compounds for 72 hours at concentrations as indicated. As a control, cells were treated with DMSO alone in every assay plate. Following treatment and the MTS assay, cell viability was independently confirmed by reading the optical density (O.D.) at 490 nm and by exclusion of trypan blue stain (Invitrogen; Burlington, ON, Canada). The viability of primary mononuclear cells was determined by staining with Annexin V.
(§3) Table 9 summarizes data obtained for representative compounds of Formula I for cell viability and CT-L proteasome activity using OCI-AML-2 and KMS-11 cell lines.

KMS-11 = assay: Cell viability assay (MTS); assay type: cell-based; conditions: Homo sapiens, 72 hours, mean ± standard deviation
Description: as §1, §2, §3

[1] = tested on: chymotrypsin-like (CT-L) proteasome activity, OCI-AML-2; assay: Proteasome enzymatic activity (tumor cell lysates); assay type: biochemical, human; conditions: OCI-AML-2 cell lysate; mean ± standard deviation
Description: (§4) Cells were harvested by centrifugation at 1,200 rpm at room temperature. Cell pellets were washed with PBS and lysed with assay lysis buffer (50 mM HEPES (N-2-hydroxyethylpiperazine-N′-2-ethanesulfonic acid), pH 7.5; 150 mM NaCl; 1% Triton X-100; 2 mM ATP). Cell lysates were incubated on ice for 30 minutes, mixed by vortex every 5 minutes, and then centrifuged at 12,000 g for 10 minutes. The supernatant was transferred to a 96-well plate. For each assay, 10 μg of total protein were incubated for 1 hour at 37° C. with increasing concentrations (1 nM to 10 μM) of test compound diluted in assay buffer (50 mM Tris-HCl (tris(hydroxymethyl)aminomethane-HCl), pH 7.5; 150 mM NaCl). DMSO alone was used as a control in every assay plate. After incubation, a specific fluorogenic proteasome substrate was added to each assay reaction at a final concentration of 40 μM in a total volume of 100 μL. N-Succinyl-Leu-Leu-Val-Tyr-7-amino-4-methylcoumarin (Suc-Leu-Leu-Val-Tyr-AMC) was used for measuring chymotrypsin-like (CT-L) activity, t-butoxycarbonyl-Leu-Arg-Arg-7-amino-4-methylcoumarin (Boc-Leu-Arg-Arg-AMC) for trypsin-like (T-L) activity, and benzyloxycarbonyl-L-leucyl-L-leucyl-L-glutamyl-7-amino-4-methylcoumarin (Z-Leu-Leu-Glu-AMC) for caspase-like (C-L) activity. The excitation wavelength was set at 360 nm and the fluorescence emission wavelength of AMC was detected at 460 nm. The fluorescence of free AMC released during the enzymatic reaction was measured with a SpectraMax M5 fluorescent spectrophotometric plate reader (Molecular Devices, Sunnyvale, Calif.). AMC release rate was measured at 37° C. in a kinetic mode, recording every 5 minutes for 30 minutes. Experiments were performed in triplicate and repeated at least twice.
as §3

[2] = tested on: chymotrypsin-like (CT-L) proteasome activity, KMS-11; assay: Proteasome enzymatic activity (tumor cell lysates); assay type: biochemical, human; conditions: KMS-11 cell lysate; mean ± standard deviation
Description: as §4, §3

[3] = tested on: primary CD138+ myeloma cells; conditions: compared with Example 1; Trudel et al. ASH 2009; cited from earlier work

IC50 (OCI-AML-2) [nM] | IC50 [1] [nM] | IC50 [2] [nM] | SMILES | IC50 (KMS-11) [nM] | therapeutic index between CD138+ and CD-138− in patient samples [3]
401 ± 275 | 600 ± 57.5 | 742 ± 83.7 | CC(C)C[C@H](NC(=O)[C@H](COC(F)F)NC(=O)CN1CCOCC1)C(=O)N[C@@H](Cc1ccccc1)C(=O)[C@@]1(C)CO1 [Example 27, (2S)-N-[(1S)-1-benzyl-2-[(2R)-2-methyloxiran-2-yl]-2-oxo-ethyl]-2-[[(2S)-3-(difluoromethoxy)-2-[(2-morpholinoacetyl)amino]propanoyl]amino]-4-methylpentanamide] | 250 ± 25.9 | 
132 ± 87.5 | 556 ± 123 | 575 ± 62.7 | CC(C)C[C@H](NC(=O)[C@H](COC(F)F)NC(=O)CN1CCOCC1)C(=O)N[C@@H](CC(C)C)C(=O)[C@@]1(C)CO1 [Example 28, (2S)-2-[[(2S)-3-(difluoromethoxy)-2-[(2-morpholino-acetyl)amino]propa-noyl]amino]-4-methyl-N-[(1S)-3-methyl-1-[(2R)-2-methyloxirane-2-carbonyl]butyl]pentanamide] | 100 ± 18.7 | 
140 ± 53.5 | 599 ± 77.7 | 704 ± 173 | CC(C)C[C@H](NC(=O)[C@H](COC(F)F)NC(=O)[C@H](COC(F)F)NC(=O)CN1CCOCC1)C(=O)[C@@]1(C)CO1 [Example 33, (2S)-3-(difluoromethoxy)-N-[(1S)-1-(difluoromethoxymethyl)-2-[[(1S)-3-methyl-1-[(2R)-2-methyloxirane-2-carbonyl]butyl]amino]-2-oxo-ethyl]-2-[(2-morpholinoacetyl)amino]propanamide] | 46.7 ± 9.89 | 
 |  |  | CC(C)C[C@H](NC(=O)[C@H](CCc1ccccc1)NC(=O)CN1CCOCC1)C(=O)N[C@@H](Cc1ccccc1)C(=O)N[C@@H](CC(C)C)C(=O)[C@@]1(C)CO1 [carfilzomib] |  | much narrower therapeutic index
